Type in all cases: cell-based
What all share (conditions): Mueller-Hinton broth, 37° C., 18 h

Assay [1] deals with M. catarrhalis ATCC 23246. Description: MIC, broth microdilution, M. catarrhalis ATCC 23246. The protocol:
(§1) Growth-inhibitory activity was determined on liquid medium by the antibiotic dilution technique using 96-well microtiter system plates containing two-fold dilutions of antibiotic-agent in 0.2 ml. of Mueller-Hinton broth. Plates were inoculated with each test organism to yield a final inoculum of 5×10^5 CFU/ml and were incubated aerobically at 37° C. for 18 h. The MIC was defined as the lowest concentration of antibacterial agent that inhibited development of visible growth in the microdilution wells.
Background: Broth dilution looks for growth in wells or tubes with falling amounts of substance.

In a further assay the test system is H. influenzae ATCC 49247. Briefly: MIC, broth microdilution, H. influenzae ATCC 49247. How it is done: as §1
A further assay deals with S. aureus GFX01596 Tet R. Description: MIC, broth microdilution, S. aureus GFX01596 Tet R. How it is done:
as §1

The subject of the next assay is S. aureus ATCC 29213. Description: MIC, broth microdilution, S. aureus ATCC 29213. The protocol:
as §1

In the next assay the test system is S. pneumoniae 157. Briefly: MIC, broth microdilution, S. pneumoniae 157. How it is done: as §1
For assay [2], the system named is S. pneumoniae GFX01778 Tet R. Description: MIC, broth microdilution, S. pneumoniae GFX01778 Tet R. How it is done:
as §1

The next assay relates to E. coli ML 308-225. Briefly: MIC, broth microdilution, E. coli ML 308-225. How it is done: as §1

Values after ≈ are worked out from the molar mass of the structure shown.

For `CN(C)[C@@H]1C(O)=C(C(N)=O)C(=O)[C@@]2(O)C(O)=C3C(=O)c4c(O)ccc(-n5ccc(C=O)c5)c4C[C@H]3C[C@@H]12` [Example 3, [4S-(4aα,5aαα,12aα)]-4-(Dimethylamino)-7-(1H-pyrrol-1-yl-3-carboxaldehyde)-1,4,4a,5,5a,6,11,12a-octahydro-3,10,12,12a-tetrahydroxy-1,11-dioxo-2-naphthacenecarboxamide], the MIC in assay [1] is 0.008 µg/mL (≈ 0.0158 µM); with H. influenzae ATCC 49247 it was 1 µg/mL (≈ 1.97 µM); with S. aureus GFX01596 Tet R it was 0.25 µg/mL (≈ 0.493 µM); against S. aureus ATCC 29213, 0.015 µg/mL (≈ 0.0296 µM); in the assay with S. pneumoniae 157, 0.015 µg/mL (≈ 0.0296 µM); in assay [2] it was 2 µg/mL (≈ 3.94 µM). In the assay on E. coli ML 308-225, this compound came in with an MIC of 0.5 µg/mL (≈ 0.985 µM).

For `CN(C)[C@@H]1C(O)=C(C(N)=O)C(=O)[C@@]2(O)C(O)=C3C(=O)c4c(O)ccc(-n5ccc(C=NO)c5)c4C[C@H]3C[C@@H]12` [Example 4, [4S-(4aα,5aαα,12aα)]-4-(Dimethylamino)-7-(3-((hydroxymino)-methyl)-1H-pyrrol-1-yl)-1,4,4a,5,5a,6,11,12a-octahydro-3, 10,12,12a-tetrahydroxy-1,11-dioxo-2-naphthacenecarboxamide], the MIC was found to be 0.03 µg/mL (≈ 0.0574 µM) in assay [1]; 2 µg/mL (≈ 3.83 µM) against H. influenzae ATCC 49247; 0.5 µg/mL (≈ 0.957 µM) against S. aureus GFX01596 Tet R; 0.12 µg/mL (≈ 0.23 µM) in the assay on S. aureus ATCC 29213; 0.03 µg/mL (≈ 0.0574 µM) against S. pneumoniae 157; 2 µg/mL (≈ 3.83 µM) in assay [2]. The MIC with E. coli ML 308-225 amounted to 1 µg/mL (≈ 1.91 µM).

For `CN(C)[C@@H]1C(O)=C(C(N)=O)C(=O)[C@@]2(O)C(O)=C3C(=O)c4c(O)ccc(-n5ccc(C#N)c5)c4C[C@H]3C[C@@H]12` [Example 5, [4S-(4aα,5aαα12aα)]-7-(3-Cyanopyrrol-1-yl)-4-(dimethylamino)-1,4,4a,5,5a,6,11,12a-octahydro-3,10,12,12a-tetrahydroxy-1,11-dioxo-2-naphthacenecarboxamide], the MIC in assay [1] was found to be 0.001 µg/mL (≈ 0.00198 µM); against H. influenzae ATCC 49247 it was 0.5 µg/mL (≈ 0.991 µM); in the assay with S. aureus GFX01596 Tet R, 0.5 µg/mL (≈ 0.991 µM); against S. aureus ATCC 29213, 0.015 µg/mL (≈ 0.0297 µM); against S. pneumoniae 157, 0.015 µg/mL (≈ 0.0297 µM); in assay [2], 2 µg/mL (≈ 3.96 µM). Moreover, the MIC with E. coli ML 308-225 was determined as 0.5 µg/mL (≈ 0.991 µM).

Turning to `CON=Cc1ccn(-c2ccc(O)c3c2C[C@H]2C[C@H]4[C@H](N(C)C)C(O)=C(C(N)=O)C(=O)[C@@]4(O)C(O)=C2C3=O)c1` [Example 6, [4S-(4aα,5aα12aα)]-4-(Dimethylamino)-7-(3-((methyloxymino)methyl)-1H-pyrrol-1-yl)-1,4,4a,5,5a,6,11,12a-octahydro-3,10,12,12a-tetrahydroxy-1,11-dioxo-2-naphthacenecarboxamide], the MIC in assay [1] was found to be 0.004 µg/mL (≈ 0.00746 µM); with H. influenzae ATCC 49247, 2 µg/mL (≈ 3.73 µM); in the assay on S. aureus GFX01596 Tet R, 0.5 µg/mL (≈ 0.932 µM); against S. aureus ATCC 29213 it was 0.12 µg/mL (≈ 0.224 µM); with S. pneumoniae 157, 0.06 µg/mL (≈ 0.112 µM); in assay [2] it was 4 µg/mL (≈ 7.46 µM). The compound further displayed an MIC with E. coli ML 308-225 of 2 µg/mL (≈ 3.73 µM).

These data come from patent publication US8304445B2, “7-pyrazolyl tetracycline compounds and methods of use thereof” (Paratek Pharmaceuticals, Inc., priority 2001, dated 2012).
